# From PMC10039899, “Integrative proteogenomic characterization of early esophageal cancer” (Nature Communications, 2023)
# Target: T1, phosphoglycerate kinase 1 (PGK1) (Homo sapiens, UniProt P00558)
# T1 construct: Flag-tagged PGK1, whole-length cDNA, purified from HEK293T cells
# T1 sequence (P00558 2-417): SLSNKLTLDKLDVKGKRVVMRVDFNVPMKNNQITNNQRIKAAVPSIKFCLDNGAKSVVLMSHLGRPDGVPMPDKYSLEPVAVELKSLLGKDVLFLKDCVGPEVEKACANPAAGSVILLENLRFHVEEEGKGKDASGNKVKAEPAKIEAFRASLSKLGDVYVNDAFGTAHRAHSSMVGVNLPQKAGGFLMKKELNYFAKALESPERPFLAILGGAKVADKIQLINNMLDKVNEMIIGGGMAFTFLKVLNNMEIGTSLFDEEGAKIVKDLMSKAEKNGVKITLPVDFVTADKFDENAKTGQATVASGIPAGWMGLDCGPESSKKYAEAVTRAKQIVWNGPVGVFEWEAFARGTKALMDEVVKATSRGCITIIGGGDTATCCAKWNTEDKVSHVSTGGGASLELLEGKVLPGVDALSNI
# Test: in vitro enzymatic assay of purified Flag-PGK1, GAPDH-coupled, NADH decrease at […] nm
# Assay type: biochemical
smiles,measurement,value
Nc1ccn([C@@H]2O[C@H](CO)[C@@H](O)C2(F)F)c(=O)n1 [gemcitabine],IC50,16.3 nM
